Earlier results in patent US8028928B2, “Spreader apparatus for sand based formulations” (priority 2007, dated 2011).

Test system: S. homoeocarpa
Settings: bent grass blend Cato:Crenshaw (50:50); high disease pressure

For `CSC(=O)c1cccc2nnsc12` [ASM, acibenzolar-5-methyl], the “Reduction of number of S. homoeocarpa infection centers” value is given as 38%.
